{"source": "a compilation of properties of binary mixtures (doi:10.1021/je970101l)", "assay": "excess molar enthalpy (molar enthalpy of mixing); xn = mol fraction of the nth substance listed", "settings": "298.15 K, 100 kPa"}
{"smiles": "CCCCOC(C)=O", "note": "+ COC(=O)OC", "values": [{"measurement": "excess molar enthalpy", "setting": "x2 = 0.0612", "value": 0.0117, "unit": "kcal/mol"}, {"measurement": "excess molar enthalpy", "setting": "x2 = 0.1153", "value": 0.022, "unit": "kcal/mol"}, {"measurement": "excess molar enthalpy", "setting": "x2 = 0.1636", "value": 0.0313, "unit": "kcal/mol"}, {"measurement": "excess molar enthalpy", "setting": "x2 = 0.2068", "value": 0.0397, "unit": "kcal/mol"}, {"measurement": "excess molar enthalpy", "setting": "x2 = 0.2812", "value": 0.0509, "unit": "kcal/mol"}, {"measurement": "excess molar enthalpy", "setting": "x2 = 0.3428", "value": 0.0586, "unit": "kcal/mol"}, {"measurement": "excess molar enthalpy", "setting": "x2 = 0.4389", "value": 0.0667, "unit": "kcal/mol"}, {"measurement": "excess molar enthalpy", "setting": "x2 = 0.5105", "value": 0.0688, "unit": "kcal/mol"}, {"measurement": "excess molar enthalpy", "setting": "x2 = 0.7578", "value": 0.0554, "unit": "kcal/mol"}, {"measurement": "excess molar enthalpy", "setting": "x2 = 0.8112", "value": 0.0454, "unit": "kcal/mol"}, {"measurement": "excess molar enthalpy", "setting": "x2 = 0.8622", "value": 0.0361, "unit": "kcal/mol"}, {"measurement": "excess molar enthalpy", "setting": "x2 = 0.9037", "value": 0.0263, "unit": "kcal/mol"}, {"measurement": "excess molar enthalpy", "setting": "x2 = 0.926", "value": 0.0203, "unit": "kcal/mol"}, {"measurement": "excess molar enthalpy", "setting": "x2 = 0.9494", "value": 0.0143, "unit": "kcal/mol"}, {"measurement": "excess molar enthalpy", "setting": "x2 = 0.9741", "value": 0.00765, "unit": "kcal/mol"}]}
{"smiles": "C=COC(C)=O", "note": "+ COC(=O)OC", "values": [{"measurement": "excess molar enthalpy", "setting": "x2 = 0.0437", "value": -0.001, "unit": "kcal/mol"}, {"measurement": "excess molar enthalpy", "setting": "x2 = 0.0838", "value": -0.00268, "unit": "kcal/mol"}, {"measurement": "excess molar enthalpy", "setting": "x2 = 0.1207", "value": -0.0039, "unit": "kcal/mol"}, {"measurement": "excess molar enthalpy", "setting": "x2 = 0.1546", "value": -0.00507, "unit": "kcal/mol"}, {"measurement": "excess molar enthalpy", "setting": "x2 = 0.2153", "value": -0.00722, "unit": "kcal/mol"}, {"measurement": "excess molar enthalpy", "setting": "x2 = 0.2679", "value": -0.00872, "unit": "kcal/mol"}, {"measurement": "excess molar enthalpy", "setting": "x2 = 0.3544", "value": -0.0104, "unit": "kcal/mol"}, {"measurement": "excess molar enthalpy", "setting": "x2 = 0.4226", "value": -0.0111, "unit": "kcal/mol"}, {"measurement": "excess molar enthalpy", "setting": "x2 = 0.5233", "value": -0.0111, "unit": "kcal/mol"}, {"measurement": "excess molar enthalpy", "setting": "x2 = 0.6222", "value": -0.0103, "unit": "kcal/mol"}, {"measurement": "excess molar enthalpy", "setting": "x2 = 0.8145", "value": -0.00571, "unit": "kcal/mol"}, {"measurement": "excess molar enthalpy", "setting": "x2 = 0.8682", "value": -0.00361, "unit": "kcal/mol"}, {"measurement": "excess molar enthalpy", "setting": "x2 = 0.8978", "value": -0.00253, "unit": "kcal/mol"}, {"measurement": "excess molar enthalpy", "setting": "x2 = 0.9294", "value": -0.00143, "unit": "kcal/mol"}, {"measurement": "excess molar enthalpy", "setting": "x2 = 0.9634", "value": -0.000645, "unit": "kcal/mol"}]}
{"smiles": "CCCCCOC(C)=O", "note": "+ COC(=O)OC", "values": [{"measurement": "excess molar enthalpy", "setting": "x2 = 0.0684", "value": 0.0139, "unit": "kcal/mol"}, {"measurement": "excess molar enthalpy", "setting": "x2 = 0.128", "value": 0.0272, "unit": "kcal/mol"}, {"measurement": "excess molar enthalpy", "setting": "x2 = 0.1804", "value": 0.0392, "unit": "kcal/mol"}, {"measurement": "excess molar enthalpy", "setting": "x2 = 0.2269", "value": 0.0502, "unit": "kcal/mol"}, {"measurement": "excess molar enthalpy", "setting": "x2 = 0.3057", "value": 0.0669, "unit": "kcal/mol"}, {"measurement": "excess molar enthalpy", "setting": "x2 = 0.3699", "value": 0.0808, "unit": "kcal/mol"}, {"measurement": "excess molar enthalpy", "setting": "x2 = 0.54", "value": 0.0954, "unit": "kcal/mol"}, {"measurement": "excess molar enthalpy", "setting": "x2 = 0.6378", "value": 0.093, "unit": "kcal/mol"}, {"measurement": "excess molar enthalpy", "setting": "x2 = 0.7254", "value": 0.0815, "unit": "kcal/mol"}, {"measurement": "excess molar enthalpy", "setting": "x2 = 0.7789", "value": 0.0722, "unit": "kcal/mol"}, {"measurement": "excess molar enthalpy", "setting": "x2 = 0.8409", "value": 0.0571, "unit": "kcal/mol"}, {"measurement": "excess molar enthalpy", "setting": "x2 = 0.8757", "value": 0.0476, "unit": "kcal/mol"}, {"measurement": "excess molar enthalpy", "setting": "x2 = 0.9337", "value": 0.0263, "unit": "kcal/mol"}, {"measurement": "excess molar enthalpy", "setting": "x2 = 0.9548", "value": 0.0179, "unit": "kcal/mol"}, {"measurement": "excess molar enthalpy", "setting": "x2 = 0.9769", "value": 0.00908, "unit": "kcal/mol"}]}
{"smiles": "CCCCCCOC(C)=O", "note": "+ COC(=O)OC", "values": [{"measurement": "excess molar enthalpy", "setting": "x2 = 0.0755", "value": 0.0206, "unit": "kcal/mol"}, {"measurement": "excess molar enthalpy", "setting": "x2 = 0.1404", "value": 0.0382, "unit": "kcal/mol"}, {"measurement": "excess molar enthalpy", "setting": "x2 = 0.2462", "value": 0.0688, "unit": "kcal/mol"}, {"measurement": "excess molar enthalpy", "setting": "x2 = 0.3289", "value": 0.0899, "unit": "kcal/mol"}, {"measurement": "excess molar enthalpy", "setting": "x2 = 0.3951", "value": 0.104, "unit": "kcal/mol"}, {"measurement": "excess molar enthalpy", "setting": "x2 = 0.4949", "value": 0.116, "unit": "kcal/mol"}, {"measurement": "excess molar enthalpy", "setting": "x2 = 0.5665", "value": 0.12, "unit": "kcal/mol"}, {"measurement": "excess molar enthalpy", "setting": "x2 = 0.7462", "value": 0.101, "unit": "kcal/mol"}, {"measurement": "excess molar enthalpy", "setting": "x2 = 0.7967", "value": 0.0903, "unit": "kcal/mol"}, {"measurement": "excess molar enthalpy", "setting": "x2 = 0.8546", "value": 0.0698, "unit": "kcal/mol"}, {"measurement": "excess molar enthalpy", "setting": "x2 = 0.9216", "value": 0.0406, "unit": "kcal/mol"}, {"measurement": "excess molar enthalpy", "setting": "x2 = 0.94", "value": 0.0304, "unit": "kcal/mol"}, {"measurement": "excess molar enthalpy", "setting": "x2 = 0.9522", "value": 0.0261, "unit": "kcal/mol"}]}
{"smiles": "CCCOC(C)=O", "note": "+ COC(=O)OC", "values": [{"measurement": "excess molar enthalpy", "setting": "x2 = 0.0538", "value": 0.00789, "unit": "kcal/mol"}, {"measurement": "excess molar enthalpy", "setting": "x2 = 0.1021", "value": 0.0143, "unit": "kcal/mol"}, {"measurement": "excess molar enthalpy", "setting": "x2 = 0.1457", "value": 0.0196, "unit": "kcal/mol"}, {"measurement": "excess molar enthalpy", "setting": "x2 = 0.1853", "value": 0.0249, "unit": "kcal/mol"}, {"measurement": "excess molar enthalpy", "setting": "x2 = 0.2544", "value": 0.0311, "unit": "kcal/mol"}, {"measurement": "excess molar enthalpy", "setting": "x2 = 0.3127", "value": 0.0361, "unit": "kcal/mol"}, {"measurement": "excess molar enthalpy", "setting": "x2 = 0.4056", "value": 0.0413, "unit": "kcal/mol"}, {"measurement": "excess molar enthalpy", "setting": "x2 = 0.4764", "value": 0.0437, "unit": "kcal/mol"}, {"measurement": "excess molar enthalpy", "setting": "x2 = 0.5771", "value": 0.044, "unit": "kcal/mol"}, {"measurement": "excess molar enthalpy", "setting": "x2 = 0.6718", "value": 0.0409, "unit": "kcal/mol"}, {"measurement": "excess molar enthalpy", "setting": "x2 = 0.8912", "value": 0.0174, "unit": "kcal/mol"}, {"measurement": "excess molar enthalpy", "setting": "x2 = 0.9161", "value": 0.0134, "unit": "kcal/mol"}]}
{"smiles": "COC(C)=O", "note": "+ COC(=O)OC", "values": [{"measurement": "excess molar enthalpy", "setting": "x2 = 0.0729", "value": -0.000191, "unit": "kcal/mol"}, {"measurement": "excess molar enthalpy", "setting": "x2 = 0.1055", "value": -0.000574, "unit": "kcal/mol"}, {"measurement": "excess molar enthalpy", "setting": "x2 = 0.1359", "value": -0.0011, "unit": "kcal/mol"}, {"measurement": "excess molar enthalpy", "setting": "x2 = 0.2393", "value": -0.00237, "unit": "kcal/mol"}, {"measurement": "excess molar enthalpy", "setting": "x2 = 0.3206", "value": -0.00289, "unit": "kcal/mol"}, {"measurement": "excess molar enthalpy", "setting": "x2 = 0.3862", "value": -0.00313, "unit": "kcal/mol"}, {"measurement": "excess molar enthalpy", "setting": "x2 = 0.586", "value": -0.00232, "unit": "kcal/mol"}, {"measurement": "excess molar enthalpy", "setting": "x2 = 0.739", "value": -0.00098, "unit": "kcal/mol"}, {"measurement": "excess molar enthalpy", "setting": "x2 = 0.7906", "value": -0.000669, "unit": "kcal/mol"}, {"measurement": "excess molar enthalpy", "setting": "x2 = 0.8499", "value": "-9.56e-05", "unit": "kcal/mol"}, {"measurement": "excess molar enthalpy", "setting": "x2 = 0.883", "value": 0.000167, "unit": "kcal/mol"}, {"measurement": "excess molar enthalpy", "setting": "x2 = 0.9189", "value": 0.000454, "unit": "kcal/mol"}, {"measurement": "excess molar enthalpy", "setting": "x2 = 0.9577", "value": 0.000215, "unit": "kcal/mol"}]}
{"smiles": "CCOC(C)=O", "note": "+ COC(=O)OC", "values": [{"measurement": "excess molar enthalpy", "setting": "x2 = 0.0426", "value": 0.00177, "unit": "kcal/mol"}, {"measurement": "excess molar enthalpy", "setting": "x2 = 0.0883", "value": 0.00289, "unit": "kcal/mol"}, {"measurement": "excess molar enthalpy", "setting": "x2 = 0.1269", "value": 0.00413, "unit": "kcal/mol"}, {"measurement": "excess molar enthalpy", "setting": "x2 = 0.1623", "value": 0.00504, "unit": "kcal/mol"}, {"measurement": "excess molar enthalpy", "setting": "x2 = 0.2252", "value": 0.00626, "unit": "kcal/mol"}, {"measurement": "excess molar enthalpy", "setting": "x2 = 0.3677", "value": 0.00832, "unit": "kcal/mol"}, {"measurement": "excess molar enthalpy", "setting": "x2 = 0.5376", "value": 0.00975, "unit": "kcal/mol"}, {"measurement": "excess molar enthalpy", "setting": "x2 = 0.6356", "value": 0.00956, "unit": "kcal/mol"}, {"measurement": "excess molar enthalpy", "setting": "x2 = 0.7772", "value": 0.00755, "unit": "kcal/mol"}, {"measurement": "excess molar enthalpy", "setting": "x2 = 0.823", "value": 0.00667, "unit": "kcal/mol"}, {"measurement": "excess molar enthalpy", "setting": "x2 = 0.9029", "value": 0.00406, "unit": "kcal/mol"}, {"measurement": "excess molar enthalpy", "setting": "x2 = 0.9331", "value": 0.00284, "unit": "kcal/mol"}, {"measurement": "excess molar enthalpy", "setting": "x2 = 0.9654", "value": 0.00146, "unit": "kcal/mol"}]}
